Source: patent publication US20260248819A1, “MULTI-COMPONENT PHARMACEUTICAL COMPOSITIONS AND KITS CONTAINING NITRIC OXIDE RELEASING COMPOUNDS AND METHODS OF USING SAME” (priority 2022, published 2026)

Legend:
[1] = test system: P. aeruginosa strain PAK (N0049); test: Checkerboard assay, MD3 combined with a second antibiotic; assay type: cell-based, Pseudomonas aeruginosa; conditions: for Lowest FICI, rep 1 / Lowest FICI, rep 2 / Lowest FICI, rep 3: antibiotic combined with MD3
Method: To quantify the combined effects of MD3 and a secondary antibiotic, a checkerboard assay was used, which is a two-dimensional, two-agent serial dilution that quantifies the effect of each drug alone and in combination. In patients with underlying pulmonary disease such as bronchiectasis, significant mucus in the lung results in bacterial infections that are primarily microaerobic (little oxygen) or anaerobic (no oxygen). Therefore, combinations of MD3 and six secondary antibiotics were evaluated under both aerobic and anaerobic conditions for a representative organism, Pseudomonas aeruginosa.
(§1) The checkerboard method was performed as follows. MD3 and the second antibiotic were tested at four times (4×) their minimum inhibitory concentration (MIC) alone (see Table 3). Stock solutions of MD3 and the secondary antibiotics were prepared at 4× the final concentration (i.e., 16× the MIC; called the 4× stocks).
MD3 and secondary antibiotics were tested at 4× their minimum inhibitory concentration (MIC) alone. […] MD3 and antibiotics were tested across a 7-point range of 2-fold concentration, as detailed in Table 3.
(§2) Bacterial cultures were prepared from frozen glycerol stocks stored at −80° C. by streaking on agar plates (see Table 4). Several well-isolated colonies were suspended in IX PBS, then diluted to 1×10^6 CFU/ml in liquid media. The cultures were diluted to 5×10^5 CFU/ml, when added to the antibiotic combinations in the checkerboard assay plate. Because colonies from strains N0010, N0046, and N0124 are difficult to suspend homogenously, they were first sub-cultured in 7H9 liquid media containing Middlebrook ADC supplement and 0.05% Tween-80, then incubated at 37° C. shaking for 3 days. This subculture was used to prepare the 1×10^6 CFU/ml culture.
(§3) To prepare the checkerboard assay plates, phosphate buffered saline (PBS) was added to wells BI through H8 of a 96-well plate. Next, 200 μl of the 4× second antibiotic stock was added to the empty wells in A1 through A8 of a 96-well plate, then serially diluted 1:1 down the plate using a multichannel pipette, stopping at row G. The final 100 μl from row G was discarded. […] At this step, all wells contain 4× the target concentration of the second antibiotic. Next, 100 μl of the 4× MD3 stock solution was added to wells A1 through H1 and serially diluted 1:1 across the plate to column 7 using a multichannel pipette. The final 100 μl in […] was discarded. […] After this step, all wells contain 2× the target concentrations for both MD3 and the second antibiotic. The wells in column 9 contain media alone, serving as media controls. The wells in column 10 contain media and bacteria, serving as growth controls. Finally, 100 μl of 5×10^5 CFU/ml bacterial culture was added to each well.
For experiments in which P. aeruginosa was grown under anaerobic conditions, 90 mM KNO3 was added to the CAMHB media, and the checkerboard assay plates were incubated in an anaerobic box containing anaerobic sachets.
(§4) The FICI was calculated for each well along the growth/no-growth border of the checkerboard assay plate. If the FICI of any well was greater than 4, antagonism was reported; otherwise, the lowest FICI value was reported. FICI values of ≤0.5 are considered synergistic, values of 0.51 to 1 are additive, and values of greater than 1 to 4 are indifferent. The rationale for this method of analysis is that, if any ratio of MD3:antibiotic is synergistic, then that combination has the potential for synergy, even if other ratios are not synergistic.

M. chimaera N0124 = test: Checkerboard assay, MD3 combined with a second antibiotic (NTM); assay type: cell-based, Mycobacterium chimaera; conditions: strain N0124, aerobic
Method: as §1, §2
(§5) To prepare the checkerboard assay plates, phosphate buffered saline (PBS) was added to wells BI through H8 of a 96-well plate. […]
(§6) The FICI was calculated for each well along the growth/no-growth border of the checkerboard assay plate. […]

M. massiliense N0130 = test: as above; assay type: cell-based, Mycobacterium massiliense; conditions: strain N0130, aerobic
Method: as §1, §2, §3
as §4, with “synergistic. […] If an experiment was repeated twice and the same classification observed (e.g., synergy observed in both replicates), then the average FICI was reported for that drug combination. […]” for “synergistic.”

[2] = test system: Candida auris (Strain N0220); test: Checkerboard assay, MD3 combined with a secondary antifungal; assay type: cell-based; conditions: for Interaction (at 24 hours) / Lowest FICI (at 24 hours) / Interaction (at 48 hours) / Lowest FICI (at 48 hours): antifungal combined with MD3
From the text: (§7) To quantify the combined effects of MD3 and a secondary antifungal, a checkerboard assay was used as described above in Example 1. The antibiotics tested in this study included voriconazole, a triazole antifungal that inhibits the growth of the fungi causing the infection; itraconazole, an azole antifungal that inhibits the growth of fungi; and amphotericin B, a polyene antifungal that binds to ergosterol in fungal cell membranes, developing holes in the membrane and allowing cell components to leak out, causing cell death.
(§8) The fungal species used in this study included Aspergillus fumigatus (strain N0219) and Candida auris (Strain N0220). The checkerboard method was performed as described above in Example 1. The effects of the antifungal combinations were classified according to the fractional inhibitory concentration index (FICI) as described above in Example 1 at time points of 24 hours and 48 hours.

[3] = test system: M. abscessus strain N0010; test: Checkerboard assay, MD3 combined with a second antibiotic (NTM); assay type: cell-based, Mycobacterium abscessus; conditions: aerobic
Method: as §1, §2, §5, §6

S. aureus strain N0040 = test: Checkerboard assay, MD3 combined with a second antibiotic; assay type: cell-based, Staphylococcus aureus; conditions: aerobic
Method: as §1, §2, §3
as §4, with “synergistic. […] If an experiment was repeated twice and the same classification observed (e.g., synergy observed in both replicates), then the average FICI was reported for that drug combination. If the results for two duplicates are discordant in their classification, a third experiment must be conducted and the average FICI from the triplicate experiments was used for final classification.” for “synergistic.”

[4] = test system: M. abscessus strain N0046; test: Checkerboard assay, MD3 combined with a second antibiotic (NTM); assay type: cell-based, Mycobacterium abscessus subsp. bolletii; conditions: aerobic
Method: as §1, §2, §5, §6

[5] = test system: Aspergillus fumigatus (strain N0219); test: Checkerboard assay, MD3 combined with a secondary antifungal; assay type: cell-based
From the text: as §7, §8

P. aeruginosa biofilms = test: Eradication of P. aeruginosa biofilms (MBEC assay); assay type: cell-based, Pseudomonas aeruginosa; conditions: aerobic and anaerobic biofilms; treated 18-24 hours
Method: The minimum biofilm eradication concentration (MBEC) of MD3 was determined for P. aeruginosa biofilms grown under aerobic and anaerobic conditions. The MBEC is defined as a 3-log reduction in biofilm-associated CFUs. Biofilms were generated using the MBEC Assay™ growth device (Innovotech; Edmonton, Alberta, Canada) in cation-adjusted Mueller-Hinton broth (CAMHB) at 37° C. for 24 hours and treated with MD3 or tobramycin for an additional 18-24 hours. Remaining biofilms were disrupted by sonication and plated to determine the surviving CFU/mL following a single treatment.

planktonic P. aeruginosa = test: Minimum inhibitory concentration (MIC) of an agent alone; assay type: cell-based; conditions: Pseudomonas aeruginosa, strain PAK grown aerobically
Method: MD3 and secondary antibiotics were tested at 4× their minimum inhibitory concentration (MIC) alone. For example, the MICMD3 against P. aeruginosa strain PAK grown aerobically is 31.25 μg/ml, and the MICTOB is 3.125 μg/ml; thus, the highest concentrations tested in the checkerboard assay were 125 µg/ml MD3 and 12.5 μg/ml TOB. MD3 and antibiotics were tested across a 7-point range of 2-fold concentration, as detailed in Table 3.
as §3, with “Finally, 100 μl of 5×10^5 CFU/ml bacterial culture was added to each well.” left out

[6] = 24 hours, antifungal combined with MD3
[7] = 48 hours, antifungal combined with MD3

C[C@@H](O)[C@H]1C(=O)N2C(C(=O)O)=C(S[C@@H]3CN[C@H](C(=O)N(C)C)C3)[C@H](C)[C@H]12 [MER, Meropenem]
Lowest FICI, rep 1 ([1]; Aerobic): 0.53 | Lowest FICI, rep 2 ([1]; Aerobic): 0.56 | Lowest FICI, rep 1 ([1]; Anaerobic): 0.56

CC[C@H]1OC(=O)[C@H](C)[C@@H](O[C@H]2C[C@@](C)(OC)[C@@H](O)[C@H](C)O2)[C@H](C)[C@@H](O[C@@H]2O[C@H](C)C[C@H](N(C)C)[C@H]2O)[C@](C)(OC)C[C@@H](C)C(=O)[C@H](C)[C@@H](O)[C@]1(C)O [CLR, Clarithromycin]
Lowest FICI, rep 1 (M. chimaera N0124): 1.00 | Lowest FICI, rep 1 (M. massiliense N0130): 0.56 | Lowest FICI, rep 2 (M. massiliense N0130): 1.00

C[C@@H]1[C@H](O)[C@@H](C)/C=C/C=C/C=C/C=C/C=C/C=C/C=C/[C@H](O[C@@H]2O[C@H](C)[C@@H](O)[C@H](N)[C@@H]2O)C[C@@H]2O[C@](O)(C[C@@H](O)C[C@@H](O)[C@H](O)CC[C@@H](O)C[C@@H](O)CC(=O)O[C@H]1C)C[C@H](O)[C@H]2C(=O)O [Amphotericin B, amphotericin B]
Interaction (at 24 hours) [2]: Additive | Lowest FICI (at 24 hours) [2]: 0.625 | Interaction (at 48 hours) [2]: Additive | Lowest FICI (at 48 hours) [2]: 0.5625

O=C([O-])CC(O)(CC(=O)[O-])C(=O)[O-].[Ga+3] [GaCi, Gallium citrate]
Lowest FICI, rep 1 [3]: 0.56 | Interaction of MD3 with the antibiotic (FICI classification) (S. aureus strain N0040): synergistic (FICI values of ≤0.5 are considered synergistic) | Lowest FICI, rep 1 (S. aureus strain N0040; combined with MD3): 0.25 | Lowest FICI, rep 2 (S. aureus strain N0040; combined with MD3): 0.19 | Lowest FICI, rep 1 ([1]; Aerobic): 0.38 | Lowest FICI, rep 2 ([1]; Aerobic): 0.38 | Lowest FICI, rep 3 ([1]; Aerobic): 0.25 | Lowest FICI, rep 1 [4]: 0.56

CC(C)(O/N=C(\C(=O)N[C@@H]1C(=O)N2C(C(=O)[O-])=C(C[n+]3ccccc3)CS[C@H]12)c1csc(N)n1)C(=O)O [CAZ, ceftazidime]
Lowest FICI, rep 1 ([1]; Aerobic): 0.38 | Lowest FICI, rep 2 ([1]; Aerobic): 0.31 | Lowest FICI, rep 1 ([1]; Anaerobic): 0.50

CCC(C)n1ncn(-c2ccc(N3CCN(c4ccc(OCC5COC(Cn6cncn6)(c6ccc(Cl)cc6Cl)O5)cc4)CC3)cc2)c1=O (stereo not shown) [Itraconazole, itraconazole]
Lowest FICI (at 24 hours) [5, 6]: 0.625 | Lowest FICI (at 48 hours) [5, 7]: 0.5625

NCC[C@H](O)C(=O)N[C@@H]1C[C@H](N)[C@@H](O[C@H]2O[C@H](CN)[C@@H](O)[C@H](O)[C@H]2O)[C@H](O)[C@H]1O[C@H]1O[C@H](CO)[C@@H](O)[C@H](N)[C@H]1O [AMK, Amikacin]
Lowest FICI, rep 1 [3]: 0.56 | Lowest FICI, rep 1 (M. chimaera N0124): 0.75 | Lowest FICI, rep 1 (M. massiliense N0130): 0.56 | Lowest FICI, rep 2 (M. massiliense N0130): 0.56 | Lowest FICI, rep 1 [4]: 0.56

Gentamicin
Lowest FICI, rep 1 ([1]; Aerobic): 1.06 | Interaction of MD3 with the antibiotic (FICI classification) ([1]; aerobic conditions): indifferent (values of greater than 1 to 4 are indifferent)

Colistin [CST]
Lowest FICI, rep 1 ([1]; Aerobic): 0.56 | Lowest FICI, rep 2 ([1]; Aerobic): 0.38 | Lowest FICI, rep 1 ([1]; Anaerobic): 0.56

C[C@@H](c1ncncc1F)[C@](O)(Cn1cncn1)c1ccc(F)cc1F [Voriconazole, voriconazole]
Interaction (at 24 hours) [2]: Additive | Lowest FICI (at 24 hours) [2]: 0.375 | Interaction (at 48 hours) [2]: Additive | Lowest FICI (at 48 hours) [2]: 0.5625 | Interaction of MD3 with the antifungal (summary) ([2]; time point not separated): at least additive | Interaction (at 24 hours) [5, 6]: Additive | Lowest FICI (at 24 hours) [5, 6]: 0.625 | Interaction (at 48 hours) [5, 7]: Additive | Lowest FICI (at 48 hours) [5, 7]: 0.313 | Interaction of MD3 with the antifungal (summary) ([5]; time point not separated): at least additive

O=C(O)c1cn(C2CC2)c2cc(N3CCNCC3)c(F)cc2c1=O [CIP, Ciprofloxacin]
Lowest FICI, rep 1 ([1]; Aerobic): 0.56 | Lowest FICI, rep 2 ([1]; Aerobic): 0.31 | Lowest FICI, rep 3 ([1]; Aerobic): 0.56 | Lowest FICI, rep 1 ([1]; Anaerobic): 0.56

NC[C@H]1O[C@H](O[C@H]2[C@H](O)[C@@H](O[C@H]3O[C@H](CO)[C@@H](O)[C@H](N)[C@H]3O)[C@H](N)C[C@@H]2N)[C@H](N)C[C@@H]1O [TOB, Tobramycin]
Biofilm eradication (MBEC, 3-log reduction in biofilm-associated CFUs) (P. aeruginosa biofilms): only effective against aerobic biofilms | Interaction of MD3 with the antibiotic (FICI classification) (S. aureus strain N0040): indifferent (values of greater than 1 to 4 are indifferent) | Lowest FICI, rep 1 (S. aureus strain N0040; combined with MD3): 1.03 | Lowest FICI, rep 1 ([1]; Aerobic): 0.56 | Lowest FICI, rep 2 ([1]; Aerobic): 0.63 | Lowest FICI, rep 3 ([1]; Aerobic): 0.56 | Lowest FICI, rep 1 ([1]; Anaerobic): 0.56 | MIC (planktonic P. aeruginosa): 3.12 µg/mL

C[C@H]1[C@H](NC(=O)/C(=N\OC(C)(C)C(=O)O)c2csc(N)n2)C(=O)N1S(=O)(=O)O [ATM, Aztreonam]
Lowest FICI, rep 1 ([1]; Aerobic): 0.31 | Lowest FICI, rep 2 ([1]; Aerobic): 0.31 | Lowest FICI, rep 1 ([1]; Anaerobic): 0.56
